Results: PubChem BioAssay (NCI)
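GI50: concentration for 50% inhibition of growth. TGI marks complete inhibition of growth.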

What was measured:
Experiment in all cases: growth of human tumour cells (NCI), 384-well format
HOP-92 NSCLC = tested on: HOP-92 NSCLC
NCI-H460 NSCLC = tested on: NCI-H460 NSCLC
SK-OV-3 ovarian = tested on: SK-OV-3 ovarian
UACC-257 melanoma = tested on: UACC-257 melanoma
RXF 393 renal = tested on: RXF 393 renal
CCRF-CEM leukemia = tested on: CCRF-CEM leukemia
ACHN renal = tested on: ACHN renal
A549 NSCLC = tested on: A549 NSCLC
NCI-H23 lung = tested on: NCI-H23 lung
NCI/ADR-RES ovarian = tested on: NCI/ADR-RES ovarian
CAKI-1 renal = tested on: CAKI-1 renal
MDA-MB-231 breast = tested on: MDA-MB-231 breast
SNB-75 CNS = tested on: SNB-75 CNS
HS 578T breast = tested on: HS 578T breast
HCT-15 colon = tested on: HCT-15 colon
OVCAR-4 ovarian = tested on: OVCAR-4 ovarian
SNB-19 CNS = tested on: SNB-19 CNS
SW-620 colon = tested on: SW-620 colon
IGROV1 ovarian = tested on: IGROV1 ovarian
EKVX NSCLC = tested on: EKVX NSCLC
HCT-116 colon = tested on: HCT-116 colon
A498 renal = tested on: A498 renal
HOP-62 NSCLC = tested on: HOP-62 NSCLC
TK-10 renal = tested on: TK-10 renal
MOLT-4 leukemia = tested on: MOLT-4 leukemia
SK-MEL-5 melanoma = tested on: SK-MEL-5 melanoma
DU-145 prostate = tested on: DU-145 prostate
K-562 leukemia = tested on: K-562 leukemia
SF-268 CNS = tested on: SF-268 CNS
HT29 colon = tested on: HT29 colon
786-0 renal = tested on: 786-0 renal
RPMI-8226 leukemia = tested on: RPMI-8226 leukemia
M14 melanoma = tested on: M14 melanoma
NCI-H322M lung = tested on: NCI-H322M lung
MALME-3M melanoma = tested on: MALME-3M melanoma
MCF7 breast = tested on: MCF7 breast
OVCAR-8 ovarian = tested on: OVCAR-8 ovarian
HL-60(TB) leukemia = tested on: HL-60(TB) leukemia
UO-31 renal = tested on: UO-31 renal
NCI-H226 lung = tested on: NCI-H226 lung
SR leukemia = tested on: SR leukemia
MDA-MB-435 melanoma = tested on: MDA-MB-435 melanoma
U251 glioblastoma = tested on: U251 glioblastoma
PC-3 prostate = tested on: PC-3 prostate
SF-539 CNS = tested on: SF-539 CNS
HCC-2998 colon = tested on: HCC-2998 colon
UACC-62 melanoma = tested on: UACC-62 melanoma
T-47D breast = tested on: T-47D breast
SN12C renal = tested on: SN12C renal
SK-MEL-2 melanoma = tested on: SK-MEL-2 melanoma
SF-295 CNS = tested on: SF-295 CNS
SK-MEL-28 melanoma = tested on: SK-MEL-28 melanoma
KM12 colon = tested on: KM12 colon
MDA-MB-468 breast = tested on: MDA-MB-468 breast
OVCAR-5 ovarian = tested on: OVCAR-5 ovarian
BT-549 breast = tested on: BT-549 breast
COLO 205 colon = tested on: COLO 205 colon
OVCAR-3 ovarian = tested on: OVCAR-3 ovarian
NCI-H522 lung = tested on: NCI-H522 lung
LOX IMVI melanoma = tested on: LOX IMVI melanoma

## O=C(c1ccc(F)c(F)c1Nc1ccc(I)cc1F)N1CC(O)([C@@H]2CCCCN2)C1
HOP-92 NSCLC
  GI50: 153 nM
  TGI: 599 nM
NCI-H460 NSCLC
  GI50: 1270 nM
  TGI: 5740 nM
SK-OV-3 ovarian
  GI50: 5110 nM
  TGI: 18600 nM
UACC-257 melanoma
  GI50: < 10 nM
  TGI: 26.8 nM
RXF 393 renal
  GI50: 725 nM
  TGI: 2580 nM
CCRF-CEM leukemia
  GI50: 3350 nM
  TGI: 7670 nM
ACHN renal
  GI50: 1490 nM
  TGI: 12200 nM
A549 NSCLC
  GI50: 97.5 nM
  TGI: 2730 nM
NCI-H23 lung
  GI50: 50.5 nM
  TGI: 708 nM
NCI/ADR-RES ovarian
  GI50: 3420 nM
  TGI: 16100 nM
CAKI-1 renal
  GI50: 565 nM
  TGI: 10400 nM
MDA-MB-231 breast
  GI50: 172 nM
  TGI: 1360 nM
SNB-75 CNS
  GI50: 1390 nM
  TGI: 6700 nM
HS 578T breast
  GI50: 4740 nM
  TGI: 15900 nM
HCT-15 colon
  GI50: 1250 nM
  TGI: 9730 nM
OVCAR-4 ovarian
  GI50: 2700 nM
  TGI: 12400 nM
SNB-19 CNS
  GI50: 5490 nM
  TGI: 18500 nM
SW-620 colon
  GI50: 41.7 nM
  TGI: 5830 nM
IGROV1 ovarian
  GI50: 120 nM
  TGI: 4510 nM
EKVX NSCLC
  GI50: 1340 nM
  TGI: 14200 nM
HCT-116 colon
  GI50: 70.3 nM
  TGI: 834 nM
A498 renal
  GI50: 472 nM
  TGI: 2950 nM
HOP-62 NSCLC
  GI50: 403 nM
  TGI: 13500 nM
TK-10 renal
  GI50: 956 nM
  TGI: 10900 nM
MOLT-4 leukemia
  GI50: 2020 nM
  TGI: 4830 nM
SK-MEL-5 melanoma
  GI50: < 10 nM
  TGI: 70.3 nM
DU-145 prostate
  GI50: 1250 nM
  TGI: 15500 nM
K-562 leukemia
  GI50: 284 nM
  TGI: 1470 nM
SF-268 CNS
  GI50: 8350 nM
  TGI: 20500 nM
HT29 colon
  GI50: 10.1 nM
  TGI: 4240 nM
786-0 renal
  GI50: 1520 nM
  TGI: 5000 nM
RPMI-8226 leukemia
  GI50: 1050 nM
  TGI: 5220 nM
M14 melanoma
  GI50: < 10 nM
  TGI: 14.6 nM
NCI-H322M lung
  GI50: 217 nM
  TGI: 6610 nM
MALME-3M melanoma
  GI50: < 10 nM
MCF7 breast
  GI50: 3550 nM
  TGI: 7290 nM
OVCAR-8 ovarian
  GI50: 3860 nM
  TGI: 10500 nM
HL-60(TB) leukemia
  GI50: 10.1 nM
  TGI: 375 nM
UO-31 renal
  GI50: 297 nM
  TGI: 3770 nM
NCI-H226 lung
  GI50: 230 nM
  TGI: 6320 nM
SR leukemia
  GI50: 1070 nM
  TGI: 2330 nM
MDA-MB-435 melanoma
  GI50: < 10 nM
  TGI: 15800 nM
U251 glioblastoma
  GI50: 820 nM
  TGI: 8280 nM
PC-3 prostate
  GI50: 7650 nM
  TGI: 19800 nM
SF-539 CNS
  GI50: 969 nM
  TGI: 7010 nM
HCC-2998 colon
  GI50: 10.2 nM
  TGI: 77 nM
UACC-62 melanoma
  GI50: < 10 nM
  TGI: 161 nM
T-47D breast
  GI50: 4790 nM
  TGI: 12500 nM
SN12C renal
  GI50: 645 nM
  TGI: 16000 nM
SK-MEL-2 melanoma
  GI50: 18.2 nM
  TGI: 52.9 nM
SF-295 CNS
  GI50: 6200 nM
  TGI: 12200 nM
SK-MEL-28 melanoma
  GI50: < 10 nM
  TGI: 16.3 nM
KM12 colon
  GI50: 136 nM
  TGI: 6910 nM
MDA-MB-468 breast
  GI50: 3890 nM
  TGI: 9320 nM
OVCAR-5 ovarian
  GI50: 126 nM
  TGI: 7960 nM
BT-549 breast
  GI50: 1400 nM
  TGI: 9160 nM
COLO 205 colon
  GI50: < 10 nM
  TGI: 27.4 nM
OVCAR-3 ovarian
  GI50: 5550 nM
  TGI: 17200 nM
NCI-H522 lung
  GI50: 2600 nM
  TGI: 17300 nM
LOX IMVI melanoma
  TGI: 527 nM
